Here are results for 24 compounds from US9273057B2 (Bristol-Myers Squibb Company, priority 2012, dated 2016).

CK2A1 (CK2α/β), sequence (P68400 whole entry, species assumed): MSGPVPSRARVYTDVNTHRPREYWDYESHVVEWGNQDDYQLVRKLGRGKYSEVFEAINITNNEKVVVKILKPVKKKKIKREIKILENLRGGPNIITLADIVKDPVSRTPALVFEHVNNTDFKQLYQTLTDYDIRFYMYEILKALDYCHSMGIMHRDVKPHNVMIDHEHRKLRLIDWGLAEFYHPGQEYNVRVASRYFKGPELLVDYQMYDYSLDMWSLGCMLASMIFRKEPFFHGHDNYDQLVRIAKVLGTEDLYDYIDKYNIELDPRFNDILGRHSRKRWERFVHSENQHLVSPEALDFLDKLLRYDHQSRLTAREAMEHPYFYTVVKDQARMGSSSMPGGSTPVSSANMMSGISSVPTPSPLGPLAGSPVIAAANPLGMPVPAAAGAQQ
CK2A1 (CK2α/β), sequence (P67870 whole entry partner, species assumed): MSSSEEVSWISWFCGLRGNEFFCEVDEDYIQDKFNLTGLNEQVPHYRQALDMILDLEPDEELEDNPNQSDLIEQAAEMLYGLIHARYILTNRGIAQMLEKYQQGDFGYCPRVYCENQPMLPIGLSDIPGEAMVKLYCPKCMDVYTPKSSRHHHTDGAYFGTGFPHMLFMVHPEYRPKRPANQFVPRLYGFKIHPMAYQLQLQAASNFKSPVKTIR

The assay concerns the target CK2A1 (CK2α/β) (Homo sapiens, UniProt P68400). Kind of assay: CK2 kinase assay, CK2A1 (CK2α/β). The format is biochemical. Conditions: Table A; read-out: CK2A1 (CK2α/β) (IC50).
As to `CCNc1nc(Nc2cc(C#N)cc(N3CCN(C4CCOC4)CC3)c2Cl)nn2c(C#N)cnc12` (racemic) [Example 103, (+/−) 2-((2-chloro-5-cyano-3-(4-(tetrahydro-3-furanyl)-1-piperazinyl)phenyl)amino)-4-(ethylamino)imidazo [2,1-f][1,2,4]triazine-7-carbonitrile], the IC50 was 0.83 nM. Regarding `CC1CN(C2CCN(c3cc(C#N)cc(Nc4nc(NC5CC5)c5ncc(C#N)n5n4)c3Cl)CC2)CC(C)O1` (racemic) [Example 109, (+/−) 2-((2-chloro-5-cyano-3-(4-(2,6-dimethyl-4-morpholinyl)-1-piperidinyl)phenyl)amino)-4-(cyclopropylamino)imidazo [2,1-f][1,2,4]triazine-7-carbonitrile], the IC50 is 4.09 nM. Consider `N#Cc1cc(Nc2nc(NC3CC3)c3ncc(C#N)n3n2)c(Cl)c(N2CCC(NC3CCOC3)CC2)c1` (racemic) [Example 112, (+/−) 2-((2-chloro-5-cyano-3-(4-(tetrahydro-3-furanylamino)-1-piperidinyl)phenyl)amino)-4-(cyclopropylamino)imidazo [2,1-f][1,2,4]triazine-7-carbonitrile], for which the IC50 came out at 2.56 nM. `N#Cc1cc(Nc2nc(NC3CC3)c3ncc(C#N)n3n2)c(Cl)c(N2CCC(NC3(CS(=O)(=O)c4ccccc4)COC3)CC2)c1` (racemic) [Example 113, (+/−) 2-((2-chloro-5-cyano-3-(4-((3-((phenylsulfonyl)methyl)-3-oxetanyl)amino)-1-piperidinyl)phenyl)amino)-4-(cyclopropylamino)imidazo [2,1-f][1,2,4]triazine-7-carbonitrile]: the IC50 turned out to be 1.01 nM. As for `N#CCC1(NC2CCN(c3cc(C#N)cc(Nc4nc(NC5CC5)c5ncc(C#N)n5n4)c3Cl)CC2)COC1` (racemic) [Example 114, (+/−) 2-((2-chloro-5-cyano-3-(4-((3-(cyanomethyl)-3-oxetanyl)amino)-1-piperidinyl)phenyl)amino)-4-(cyclopropylamino)imidazo [2,1-f][1,2,4]triazine-7-carbonitrile], the IC50 is 1.57 nM. As for `CN1CC(NC2CCN(c3cc(C#N)cc(Nc4nc(NC5CC5)c5ncc(C#N)n5n4)c3Cl)CC2)CC1=O` (racemic) [Example 116, (+/−) 2-((2-chloro-5-cyano-3-(4-((1-methyl-5-oxo-3-pyrrolidinyl)amino)-1-piperidinyl)phenyl)amino)-4-(cyclopropylamino)imidazo [2,1-f][1,2,4]triazine-7-carbonitrile], the figure is 0.68 nM; as for `N#Cc1cc(Nc2nc(NC3CC3)c3ncc(C#N)n3n2)c(Cl)c(N2CCC(N[C@H]3CC[C@H](O)C3)CC2)c1` (racemic) [Example 120, (+/−) 2-((2-chloro-5-cyano-3-(4-(((1S,3S)-3-hydroxycyclopentyl)amino)-1-piperidinyl)phenyl)amino)-4-(cyclopropylamino)imidazo [2,1-f][1,2,4]triazine-7-carbonitrile], 0.69 nM. For the compound `N#Cc1cc(Nc2nc(NC3CC3)c3ncc(C#N)n3n2)c(Cl)c(N2CCC(N[C@@H]3CC[C@H](O)C3)CC2)c1` (racemic) [Example 121, (+/−) 2-((2-chloro-5-cyano-3-(4-(((1R,3S)-3-hydroxycyclopentyl)amino)-1-piperidinyl)phenyl)amino)-4-(cyclopropylamino)imidazo [2,1-f][1,2,4]triazine-7-carbonitrile], the IC50 was 1.05 nM. In the case of `C[C@H]1OCC[C@@H]1NC1CCN(c2cc(C#N)cc(Nc3nc(NC4CC4)c4ncc(C#N)n4n3)c2Cl)CC1` (racemic) [Example 122, (+/−) 2-((2-chloro-5-cyano-3-(4-(((2R,3S)-2-methyltetrahydro-3-furanyl)amino)-1-piperidinyl)phenyl)amino)-4-(cyclopropylamino)imidazo [2,1-f][1,2,4]triazine-7-carbonitrile], the IC50 stood at 0.8 nM. With `C[C@@H]1OCC[C@@H]1NC1CCN(c2cc(C#N)cc(Nc3nc(NC4CC4)c4ncc(C#N)n4n3)c2Cl)CC1` (racemic) [Example 123, (+/−) 2-((2-chloro-5-cyano-3-(4-(((2S,3S)-2-methyltetrahydro-3-furanyl)amino)-1-piperidinyl)phenyl)amino)-4-(cyclopropylamino)imidazo [2,1-f][1,2,4]triazine-7-carbonitrile], the IC50 worked out at 0.55 nM.

As for `N#Cc1cc(Nc2nc(NC3CC3)c3ncc(C#N)n3n2)c(Cl)c(N2CCC(N[C@@H]3CCCC[C@@H]3F)CC2)c1` (racemic) [Example 127, (+/−) 2-(2-chloro-5-cyano-3-(4-((1R,2R)-2-fluorocyclohexylamino)piperidin-1-yl)phenylamino)-4-(cyclopropylamino)imidazo [1,2-f][1,2,4]triazine-7-carbonitrile], the IC50 is 0.62 nM. As for `N#Cc1cc(Nc2nc(NC3CC3)c3ncc(C#N)n3n2)c(Cl)c(N2CCC(N[C@@H]3CCCC[C@H]3F)CC2)c1` (racemic) [Example 128, (+/−)2-(2-chloro-5-cyano-3-(4-((1R,2S)-2-fluorocyclohexylamino)piperidin-1-yl)phenylamino)-4-(cyclopropylamino)imidazo [1,2-f][1,2,4]triazine-7-carbonitrile], the figure is 4.77 nM; as for `N#Cc1cc(Nc2nc(NC3CC3)c3ncc(C#N)n3n2)c(Cl)c(N2CCC(N[C@H]3COC[C@@H]3O)CC2)c1` (racemic) [Example 135, (+/−) 2-((2-chloro-5-cyano-3-(4-(((3S,4R)-4-hydroxytetrahydro-3-furanyl)amino)-1-piperidinyl)phenyl)amino)-4-(cyclopropylamino)imidazo [2,1-f][1,2,4]triazine-7-carbonitrile], 0.68 nM; as for `CC(O)CNC1CCN(c2cc(C#N)cc(Nc3nc(NC4CC4)c4ncc(C#N)n4n3)c2Cl)CC1` (racemic) [Example 138, (+/−).2-(2-chloro-5-cyano-3-(4-(2-hydroxypropylamino)piperidin-1-yl)phenylamino)-4-(cyclopropylamino)imidazo [1,2-f][1,2,4]triazine-7-carbonitrile], 0.64 nM. Regarding `N#Cc1cc(Nc2nc(NC3CC3)c3ncc(C#N)n3n2)c(Cl)c(N2CCC(NCC(O)C(F)(F)F)CC2)c1` (racemic) [Example 139, (+/−) 2-((2-chloro-5-cyano-3-(4-((3,3,3-trifluoro-2-hydroxypropyl)amino)-1-piperidinyl)phenyl)amino)-4-(cyclopropylamino)imidazo [2,1-f][1,2,4]triazine-7-carbonitrile], the IC50 was determined as 0.45 nM. As for `COCC(NC1CCN(c2cc(C#N)cc(Nc3nc(NC4CC4)c4ncc(C#N)n4n3)c2Cl)CC1)C1CC1` (racemic) [Example 142, (+/−) 2-((2-chloro-5-cyano-3-(4-((1-cyclopropyl-2-methoxyethyl)amino)-1-piperidinyl)phenyl)amino)-4-(cyclopropylamino)imidazo [2,1-f][1,2,4]triazine-7-carbonitrile], the IC50 is 0.67 nM.

Take `N#Cc1cc(Nc2nc(NC3CC3)c3ncc(C#N)n3n2)c(Cl)c(N2CCC(NCC(O)CF)CC2)c1` (racemic) [Example 144, (+/−) 2-((2-chloro-5-cyano-3-(4-((3-fluoro-2-hydroxypropyl)amino)-1-piperidinyl)phenyl)amino)-4-(cyclopropylamino)imidazo [2,1-f][1,2,4]triazine-7-carbonitrile]: the IC50 came out at 1.11 nM.

On to `CC(C)(O)C1CN(C2CCN(c3cc(C#N)cc(Nc4nc(NC5CC5)c5ncc(C#N)n5n4)c3Cl)CC2)CCO1` (racemic) [Example 148, (+/−) 2-((2-chloro-5-cyano-3-(4-(2-(1-hydroxy-1-mcthylethyl)-4-morpholinyl)-1-piperidinyl)phenyl)amino)-4-(cyclopropylamino)imidazo [2,1-f][1,2,4]triazine-7-carbonitrile], for which the IC50 was 1.03 nM. As for `COC(=O)N[C@H]1CCN(C2CN(c3cc(C#N)cc(Nc4nc(NC5CC5)c5ncc(C#N)n5n4)c3Cl)C2)C[C@@H]1O` (racemic) [Example 154, (+/−) methyl ((3S,4S)-1-(1-(2-chloro-5-cyano-3-((7-cyano-4-(cyclopropylamino)imidazo [2,1-f][1,2,4]triazin-2-yl)amino)phenyl)-3-azetidinyl)-3-hydroxy-4-piperidinyl)carbamate], the figure is 0.4 nM.

With `N#Cc1cc(Nc2nc(NC3CC3)c3ncc(C#N)n3n2)c(Cl)c(N2CC(N3CCC(O)C3)C2)c1` (racemic) [Example 159, (+/−) 2-((2-chloro-5-cyano-3-(3-(3-hydroxy-1-pyrrolidinyl)-1-azetidinyl)phenyl)amino)-4-(cyclopropylamino)imidazo [2,1-f][1,2,4]triazine-7-carbonitrile], the IC50 was determined as 0.48 nM. Consider `CC(C)(O)C1CN(C2CN(c3cc(C#N)cc(Nc4nc(NC5CC5)c5ncc(C#N)n5n4)c3Cl)C2)CCO1` (racemic) [Example 165, (+/−)2-(2-chloro-5-cyano-3-(3-(2-(2-hydroxypropan-2-yl)morpholino)azetidin-1-yl)phenylamino)-4-(cyclopropylamino)imidazo [1,2-f][1,2,4]triazine-7-carbonitrile], for which the IC50 amounted to 0.54 nM. With `CC(=O)N[C@@H]1CCN(c2cc(C#N)cc(Nc3nc(NC4CC4)c4ncc(C#N)n4n3)c2Cl)C[C@H]1O` (racemic) [Example 172, (+/−)-N-((3R,4R)-1-(2-chloro-5-cyano-3-((7-cyano-4-(cyclopropylamino)imidazo[2,1-f][1,2,4]triazin-2-yl)amino)phenyl)-3-hydroxypiperidin-4-yl)acetamide], the IC50 amounted to 0.51 nM.

Turning to `N#Cc1cc(Nc2nc(NC3CC3)c3ncc(C#N)n3n2)c(Cl)c(N2CC[C@@H](NC(=O)OC3CN(C4COC4)C3)[C@H](O)C2)c1` (racemic) [Example 180, (+/−)-1-(oxetan-3-yl)azetidin-3-yl((3R,4R)-1-(2-chloro-5-cyano-3-((7-cyano-4-(cyclopropylamino)imidazo[2,1-f][1,2,4]triazin-2-yl)amino)phenyl)-3-hydroxypiperidin-4-yl)carbamate], the IC50 turned out to be 0.51 nM.

Take `N#Cc1cc(Nc2nc(NC3CC3)c3ncc(C#N)n3n2)c(Cl)c(N2CC[C@@H](NC(=O)N3CCOCC3)[C@H](O)C2)c1` (racemic) [Example 181, (+/−)-N-((3R,4R)-1-(2-chloro-5-cyano-3-((7-cyano-4-(cyclopropylamino)imidazo[2,1-f][1,2,4]triazin-2-yl)amino)phenyl)-3-hydroxypiperidin-4-yl)morpholine-4-carboxamide]: the IC50 amounted to 0.88 nM.
